Measurements as given in publication PMC3954431 (Molecular cancer therapeutics, 2013).

Columns and labels:
UN1 mAb = assay: Surface plasmon resonance, UN1 mAb immobilized on CM5 chip; assay type: binding, murine; conditions: Biacore 3000, UN1 mAb immobilized on CM5 chip, peptide 0.1-2.5 mM
[1] = ELISA reactivity of immunized mice sera against scrambled peptide; assay type: in vivo; conditions: sera of phage-immunized Balb/c mice
[2] = system: UN1 mAb binding to UN1-positive breast and gastric cancer tissues; assay: Competition of UN1 mAb binding to cancer tissues; parameters: species or system human; conditions: Fig. S3
[3] = ELISA reactivity of immunized mice sera against G23 peptide; assay type: in vivo; conditions: sera of phage-immunized Balb/c mice
[4] = Balb/c mice
wild type phage = assay: ELISA reactivity of immunized mice sera against wild type phage; assay type: in vivo; conditions: sera of phage-immunized Balb/c mice
[5] = system: W6/32 mAb (anti-human HLA class I antigen) binding; assay: Competition of W6/32 mAb binding; assay type: cell-based; conditions: Fig. S2B
[6] = sera, days 7-10 from the 6th boost, 5 animals/group, colorimetric assay, mean ± SEM

TCLAPDVPEPLSHCWAGETFKLA [scrambled peptide]
SPR signal (UN1 mAb): failed to give the SPR signal

TPHTCKLLDECVPLW [phagotope 2/165]
serum reactivity against scrambled peptide [1]: unreactive against the scrambled peptide | competition of UN1 mAb binding to breast and gastric cancer tissues [2]: competed the binding of UN1 mAb to UN1-positive breast and gastric cancer tissues | serum reactivity against G23 peptide [3]: specific immune response against the UN1 mimotope G23 peptide | health of immunized mice ([4]; 5 animals/group, i.p. phage immunization): appeared healthy and did not show any ill-effect | serum IL1-β, GSH and LDH levels versus normal ([4]; phage-immunized): in the range of normality | GSH [4, 6]: 10.1 ± 0.9 µM | LDH [4, 6]: 52.9 ± 15.4 IU/L | IL-1β ([4]; serum, days 7-10 from the 6th boost, 5 animals/group, ELISA, mean ± SEM): 58.2 ± 0.3 pg/mL | antibody response against the wild type phage (wild type phage): strong and comparable antibody response against the wild type phage

SFAATPHTCKLLDECVPLWPAEG [G23]
competition of UN1 mAb binding to breast and gastric cancer tissues [2]: competed the binding of UN1 mAb to UN1-positive breast and gastric cancer tissues | competition of W6/32 mAb binding [5]: did not compete the binding of W6/32 mAb
